According to article PMC8602401 (Scientific Reports, 2021):

Tests used:
rat plasma protein = experiment: EScalate equilibrium shift assay, rat plasma; type: in vitro ADME; conditions: EScalate equilibrium shift assay
[1] = Bioavailability after intraduodenal administration with permeation enhancers in rats; type: in vivo, rat; conditions: single intraduodenal administration with permeation enhancers (NaCDC and PG), n = 4 per group
Method: Male Sprague Dawley rats (Charles River, Shrewsbury, MA, USA) weighing 250–275 g were housed with ad libitum access to standard chow and water. Test peptides were administered via either an intravenous or a duodenal catheter (4 rats per group) after overnight fasting, and food was returned following 4 h blood collection. Blood was collected via a jugular vein catheter at − 5, 15 and 30 min and 1, 2, 4, 8 and 24 h after intravenous dosing, or for intraduodenal groups at 15 min predose and 0.5, 1, 2, 4, 8, 24 and 48 h postdose. Blood was collected in K2EDTA tubes and kept on wet ice prior to 10 min centrifugation (3000 × g) at 5 °C ± 3 °C. Plasma samples were stored at − 70 °C until analysis.
Fifty or seventy μL aliquots of K2EDTA plasma samples were precipitated with 75% acetonitrile (Sigma-Aldrich) in water (J.T. Baker, Phillipsburg, NJ, USA) (v/v) and centrifuged at 2000 × g. The supernatant was dried under nitrogen at 60 °C, then cooled. Samples were reconstituted in 20% acetonitrile in water (v/v). […] Gradient separation was performed with water and 0.2% formic acid (Thermo Fisher Scientific, Waltham, MA, USA) as mobile phase A, and acetonitrile with 0.2% formic acid as mobile phase B. The method was qualified for the quantification range of 1–1000 ng/mL with accuracy and precision of ± 20%, except for at the lower limit of quantification when the accuracy and precision were ± 25%. Plasma concentrations were subject to noncompartmental analysis consistent with the route of administration using Phoenix WinNonlin (version 7.0, Certara, Princeton, NJ, USA).

[2] = Pharmacokinetics of oral tablets in dogs; type: in vivo; conditions: oral tablets 20 mg/dog, semaglutide: 300 mg SNAC, uncoated, MEDI7219: 100 mg NaCDC and 200 mg PG, pH 5.5 enteric, arithmetic mean (% CV)
[3] = set-up: method as in PMID 30429357; conditions: oral semaglutide in dogs; cited from earlier work
human plasma protein = experiment: EScalate equilibrium shift assay, human plasma; type: in vitro ADME; conditions: EScalate equilibrium shift assay
Method: (§1) Binding of peptides to human plasma proteins was determined by the EScalate equilibrium shift assay (Sovicell, Leipzig, Germany), using five dilutions of plasma in phosphate buffered saline and an assumed binding protein concentration of 600 µM. Samples were incubated for 1 h at room temperature then centrifuged to remove the HSA-coated beads. Supernatant samples were analyzed using HPLC (3 µm Phenomenex Aeris Widepore XB-C18 stationary phase) coupled to an electrospray ionization quadrupole time-of-flight mass spectrometer in high resolution accurate mass mode (Agilent, Santa Clara, CA, USA). Unbound fractions were calculated from the concentration-dependent shift in binding equilibrium according to fu=1/1+P/KDPlasma , where P is the concentration of the binding protein in plasma and KDPlasma is the dissociation constant of the compound from plasma proteins in solution.

monkey plasma protein = experiment: EScalate equilibrium shift assay, monkey plasma; type: in vitro ADME; conditions: EScalate equilibrium shift assay
Method: [The procedure below names another species; the source lists this species under the same test.] as §1

FaSSIF/pancreatin = experiment: Fasted-state simulated intestinal fluid/pancreatin assay; type: in vitro ADME; conditions: FaSSIF/USP pancreatin; analytical RP-HPLC
Method: Fresh FaSSIF and USP Pancreatin (FaSSIF/p; Sigma-Aldrich) was prepared according to Galia et al[55]. and used immediately. Peptides were dissolved in pre-warmed FaSSIF before addition of pre-warmed FaSSIF/pancreatin with agitation. Samples were analyzed by analytical RP-HPLC to determine remaining intact peptide by area under the curve.

dog plasma protein = experiment: EScalate equilibrium shift assay, dog plasma; type: in vitro ADME
[4] = oral semaglutide with SNAC; cited from earlier work
Source text: Previous approaches to engineering peptide therapeutics include substitution with unnatural amino acids to protect proteolytically vulnerable sites, and lipidation to promote reversible serum protein binding and reduced renal clearance[40]–[42]. […] Ala[8] is replaced with artificial α-methyl-L-alanine to protect the peptide against serum DPP-IV and the peptide is mono-lipidated at Lys[26],[43]. Despite these modifications, semaglutide is still susceptible to rapid proteolytic degradation in th ...

CC[C@H](C)[C@H](NC(=O)[C@H](Cc1ccccc1)NC(=O)[C@H](CCC(=O)O)NC(=O)[C@H](CCCCNC(=O)COCCOCCNC(=O)COCCOCCNC(=O)CC[C@H](NC(=O)CCCCCCCCCCCCCCCCC(=O)O)C(=O)O)NC(=O)[C@H](C)NC(=O)[C@H](C)NC(=O)[C@H](CCC(N)=O)NC(=O)CNC(=O)[C@H](CCC(=O)O)NC(=O)[C@H](CC(C)C)NC(=O)[C@H](Cc1ccc(O)cc1)NC(=O)[C@H](CO)NC(=O)[C@H](CO)NC(=O)[C@@H](NC(=O)[C@H](CC(=O)O)NC(=O)[C@H](CO)NC(=O)[C@@H](NC(=O)[C@H](Cc1ccccc1)NC(=O)[C@@H](NC(=O)CNC(=O)[C@H](CCC(=O)O)NC(=O)C(C)(C)NC(=O)[C@@H](N)Cc1cnc[nH]1)[C@@H](C)O)[C@@H](C)O)C(C)C)C(=O)N[C@@H](C)C(=O)N[C@@H](Cc1c[nH]c2ccccc12)C(=O)N[C@@H](CC(C)C)C(=O)N[C@H](C(=O)N[C@@H](CCCNC(=N)N)C(=O)NCC(=O)N[C@@H](CCCNC(=N)N)C(=O)NCC(=O)O)C(C)C [Semaglutide, semaglutide, reference compound]
peptide bound to plasma proteins, rat (rat plasma protein): over 97%
mean bioavailability (%F) [1]: 0.08%
AUC0-inf ([2]; n = 9): 1,440 (45.8) ng·h/mL
F (bioavailability, systemic fraction) ([2]; n = 9): 0.08 (45.8) %
F (bioavailability, systemic fraction) ([2]; n = 9, listed as semaglutide): 0.08%
t½ ([2]; plasma, LC/MS, n = 9): 60.5 (13.6) hours
published bioavailability (%F) in dogs [3]: 1.22%
peptide bound to plasma proteins, human (human plasma protein): over 97%
peptide bound to plasma proteins, monkey (monkey plasma protein): over 97%
time to complete degradation in FaSSIF/pancreatin (FaSSIF/pancreatin): less than 20 min
peptide bound to plasma proteins, dog (dog plasma protein; EScalate equilibrium shift assay): over 97%
Fraction unbound peptide (%), dog (dog plasma protein; EScalate equilibrium shift, five dilutions of plasma in PBS, 1 h at room temperature, HPLC-QTOF MS): 0.37%
bioavailability of oral formulation with SNAC [4]: 0.4–1%
